Results as given in patent US20100310459A1, “Targeted Detection of Dysplasia In Barrett's Esophagus With A Novel Fluorescence-Labeled Polypeptide” (THE REGENTS OF THE UNIVERSITY OF MICHIGAN, priority 2009, published 2010).
Blank lines part the entries; values can stand above or below the substance they belong to. Primed or numbered codes have the meaning given here. Where no end group is shown, it is not given here. FITC′ = not defined here

Tests used:
0E-21 (squamous) cells = test: Target peptide binding to cell surface targets; type: cell-based; conditions: 100 μM
[1] = test system: SEG1 (adenocarcinoma) cells; test: Target peptide binding to cell surface targets; type: cell-based; conditions: 100 μM
Protocol: Identification of plasma membrane targets on adenocarcinoma cells that affinity bind to “ASYNYDA” (SEQ ID NO: 5). The carboxyl end of the target peptide was linked to affinity column beads using EDC chemistry. Seg-1 cells were grown to confluency, lysed by sonification, and fractionated by centrifugation. The resulting membrane fractions were applied to the target peptide labeled column and specific binding proteins were eluted. These proteins were separated and collected in fractions by a reverse phase column using a Beckman PF 2D liquid chromatography apparatus. The protein fractions were spotted on a nitrocellulose coated micro array printer slide and probed with the FITC-labeled target peptide. The fluorescence intensities at each spot were quantified with an Axon Imager. Protein fractions with the highest intensity were trypsinized, and proteomic analysis was performed using a Finnigan LTQ linear ion trap mass spectrometer. The protein identities were confirmed using an International Protein Index (IPI) database search, utilizing the SEQUEST program and with open source Xtandem and peptide and protein prophet software. […] See Table 1 below for list of targets identified. All identified proteins were either an exact match or >0.99.

[2] = test system: Q-hTERT (intestinal metaplasia) cells; test: Target peptide binding to cell surface targets; type: cell-based; conditions: 100 μM
[3] = test system: OE33 esophageal adenocarcinoma cells; test: Competitive inhibition assay (peptide vs SNFYMPL-phage); type: cell-based, human; conditions: peptide at 100, 200, and 400 μM
Protocol: Competitive inhibition assay. The OE33 and Q-hTERT cells were detached and blocked. […] pfu of SNFYMPL-phage was incubated with OE33 cells (1×10^7) or Q-hTERT cells (1×10^7), ‘SNFYMPL-GGGSK’ peptide or scrambled peptide ‘NLMPYFS-GGGSK’ were added into cell-phage mixture at the concentration of 100, 200, and 400 μm for competition with the phage. After washing three times with PBS/0.1% (v/v) Tween-20 and one time with 0.2 M glycine, pH 2.2/0.1% BSA for two minutes, the bound phage were recovered and titered. Every sample was carried out in triplicate. The amount of bound phage in every sample was […].

[4] = test system: OE33 (esophageal adenocarcinoma) cells; test: Fluorescence images for peptide binding on culture cells; type: cell-based, human; conditions: for intensity associated with binding to the cell surface: OE33
Protocol: (§1) Fluoresence images for peptide binding on culture cells. The OE33 and QhTERT cells were grown in chamber slides to 80% confluence. Blocking of non-specific binding to these cells was performed by adding 200 μl of 1% BSA diluted in PBS for 30 min. The cells were then incubated with […] of the candidate FITC-labeled peptide in serum free media for 10 minutes at room temperature. The cells were washed 3 times using 200 μL PBS/0.5% TWEEN 20 in room temperature. The cells were fixed in ice cold 4% praformaldehyde for 5 minutes. The cells were then stained with Vectashield mounting medium containing DAPI. Fluorescence images were collected with a confocal microscope (Nikon 1000) at 200×. The fluorescence intensity from the cells in 3 images was averaged to assess for peptide binding using NIH Image J software.

[5] = test system: Human endoscopic mucosal resection (EMR) specimens of esophageal mucosa; test: Fluorescence-labeled polypeptide binding to endoscopic mucosal resection (EMR) specimens; conditions: for mean fluorescence intensity value: 100 μm, 5 minutes
Protocol: Human endoscopic mucosal resection (EMR) specimens were freshly taken from regions of suspected dysplastic mucosa. Each specimen was incubated with the FITC-labeled polypeptide of SEQ ID NO: 1 at a concentration of 100 μm for 5 minutes. Ink was used to mark the 12 o'clock position for orientation. White light stereo microscope (Olympus SZX16) images were obtained with an overlying 20×20 mm grid to register the histology. Fluorescence images were obtained at an exposure of 12 ms. The tissue was then fixed in formalin. An expert GI pathologist sectioned the specimens along cross-sections at ˜2 mm intervals longitudinally and interpreted the histopathology while blinded to the fluorescence images. The mean intensity of the fluorescence images in each 1 mm interval was measured using the NIH Image J processing software and compared with histology.

[6] = test system: Q-hTERT (intestinal metaplasia) cells; test: Fluorescence images for peptide binding on culture cells; type: cell-based
Protocol: as §1

Substance: ASYNYDA
binding to cell surface targets (0E-21 (squamous) cells): lack of binding
binding to cell surface targets [1]: preferential binding
binding to cell surface targets [2]: lack of binding

Substance: NLMPYFS-GGGSK (NLMPYFSGGGSK) [scrambled control peptide, reference compound]
inhibition of SNFYMPL-phage binding to OE33 cells [3]: no inhibition ability
inhibition of SNFYMPL-phage binding to OE33 cells ([3]; listed as scrambled peptide ‘NLMPYFS’): did not inhibit

mean fluorescence intensity value ([5]; dysplasia (n=69 sites)): 56.5 gray levels
mean fluorescence intensity value ([5]; gastric mucosa (n=35 sites)): 24.1 gray levels
mean fluorescence intensity value ([5]; intestinal metaplasia (n=66 sites)): 42.1 gray levels
binding to Barrett's dysplasia ([5]; mucosal surface areas on the centimeter scale): Selective binding
mean fluorescence intensity value ([5]; squamous (n=107 sites)): 27.1 gray levels
Substance: SNFYMPL-GGGSK-FITC (SNFYMPLGGGSK-{FITC′}) [FITC conjugated at the C-terminus of SNFYMPL via the GGGSK linker]
intensity associated with binding to the cell surface ([4]; FIG. 3 legend): 69±18
intensity associated with binding to the cell surface ([4]; NIH Image J): 69 mean grey value
cells with peptide bound to the plasma membrane ([4]; OE33 cells, FITC-labeled peptide, 10 minutes): > 90%
intensity associated with binding to the cell surface ([6]; FIG. 3 legend): 25.7±2.5
intensity associated with binding to the cell surface ([6]; NIH Image J): 25.7 mean grey value

Substance: SNFYMPL-GGGSK
inhibition of SNFYMPL-phage binding to OE33 cells [3]: could obviously inhibit
inhibition of SNFYMPL-phage binding to OE33 cells ([3]; listed as ‘SNFYMPL’ peptide): significantly inhibited the SNFYMPL-phage binding to the OE33 cells in a concentration dependent manner
